Results as given in paper PMC11436024, “E-Cyanoacrylamides and 5-Imino Pyrrolones against Trypanosoma cruzi: Activity and Induced Mechanisms of Cell Death” (Tropical Medicine and Infectious Disease, 2024).

Key:
[1] = tested on: epimastigote form of T. cruzi; experiment: In vitro epimastigote activity assay (alamarBlue); assay type: cell-based, Trypanosoma cruzi strain Y; conditions: for IC50: epimastigote form of T. cruzi, 72 h incubation at 26 °C, mean ± standard deviation; for SI (selectivity index, CC50/IC50): against the epimastigote form of T. cruzi, CC50 murine macrophages
Procedure: This assay is based on the use of alamarBlue. The alamarBlue reagent contains resazurin, which emits blue fluorescence under normal conditions. However, when the parasites are still alive and in contact with cell metabolism, the reagent is reduced to resorufin, which emits pink fluorescence.
In 96-well plates, serial dilutions of each compound were added with parasites at a concentration of 10^6 cells/mL in a final volume of 200 µL. Finally, 10% alamarBlue reagent was added, with 20 µL per well.
After 72 h of incubation at 26 °C, the plate was introduced into the plate reader and the fluorescence (570 nm excitation, 585 nm emission) of each well was determined using the EnSpire Multimode Plate Reader® (PerkinElmer, Thermo Fischer Scientific, Madrid, Spain). Finally, using a non-linear regression analysis in Graphpad Prism 9.0.0. the inhibitory concentration 50 (IC50) was calculated.
Inhibitory and cytotoxic concentrations (IC50, IC90, and CC50) were determined in duplicate on three different days using non-linear regression [Inhibitor] vs. response variable slope (four parameters) using non-linear regression analysis with 95% confidence, using GraphPad Prism 10.1.1 statistical software. The analysis was developed using Tukey’s test, considering significant values of p < 0.05. ANOVA analysis was also performed using GraphPad Prism 10.1.1.

[2] = tested on: amastigote form of T. cruzi; experiment: In vitro amastigote activity assay (alamarBlue, intracellular parasites in macrophages); assay type: cell-based, Trypanosoma cruzi; conditions: for IC50: Trypanosoma cruzi, Macrophage, amastigote form of T. cruzi in macrophages, 24 h with compound at 37 °C, mean ± standard deviation; for SI (selectivity index, CC50/IC50): against the amastigote form of T. cruzi, CC50 murine macrophages
Procedure: To perform the assay against the intracellular form of the parasite, the same colorimetric method based on the alamarBlue was developed. To produce the internalization of the parasites, an excess of epimastigote forms were added (10^5:10^4 parasites/macrophages in 100 µL of DMEM) to a 96-well plate for 24 h at 37 °C. Then, the wells were washed 3 times to eliminate the non-internalized parasites, and the serial dilutions of the compounds were added and dissolved in DMEM medium. After another incubation of 24 h at 37 °C, the drugs were eliminated and the cells were lysed with 0.05% SDS for 30 s. After adding LIT in a final volume of 200 µL and 10% of alamarBlue™ reagent, the plates were incubated for 96 h to promote the externalization of the parasites. Finally, the fluorescence was read using the EnSpire Multimode Plate Reader® and the inhibitory concentration 50 (IC50) was calculated. Inhibitory and cytotoxic concentrations (IC50, IC90, and CC50) were determined in duplicate on three different days using non-linear regression [Inhibitor] vs. response variable slope (four parameters) using non-linear regression analysis with 95% confidence, using GraphPad Prism 10.1.1 statistical software. The analysis was developed using Tukey’s test, considering significant values of p < 0.05. ANOVA analysis was also performed using GraphPad Prism 10.1.1.

[3] = tested on: Murine macrophages J774.A1; experiment: Cytotoxicity assay (alamarBlue); assay type: cell-based; conditions: for IC50 (cytotoxic concentration 50, CC50): 24 h
Procedure: Murine macrophages J774.A1 strain ATCC #TIB-67, acquired from American Type Culture Collection (ATTC, LGC Promochem, Barcelona, Spain), were cultured in DMEM medium and maintained at 37 °C and 5% CO2. This assay followed the same principle as the previous one, but in this case, macrophages were used instead of parasites to determine the toxicity of the compounds. A total of 50 μL with a concentration of 2 × 10^5 cells/mL was added to each well with serial dilutions of the compounds in 50 μL of RPMI medium. After this, 10% of alamarBlue™ reagent was added and the plate was incubated at 37 °C and 5% CO2 for 24 h. After this time, the fluorescence was read using the EnSpire Multimode Plate Reader® and the cytotoxic concentration 50 (IC50) was calculated. Inhibitory and cytotoxic concentrations (IC50, IC90, and CC50) were determined in duplicate on three different days using non-linear regression [Inhibitor] vs. response variable slope (four parameters) using non-linear regression analysis with 95% confidence, using GraphPad Prism 10.1.1 statistical software. The analysis was developed using Tukey’s test, considering significant values of p < 0.05. ANOVA analysis was also performed using GraphPad Prism 10.1.1.

[4] = tested on: L3 larvae of Culex pipiens; experiment: Larvicidal (in vivo toxicity) assay against mosquito larvae
Procedure: The L3 larvae from Culex pipiens, used in the cytotoxicity assay, were cultured at the Laboratorio de Entomología Médica of the Instituto Universitario de Enfermedades Tropicales y Salud Pública de Canarias in Tenerife, Spain.
For this purpose, 3 mL of sterile water with food for 48 h was added to 24-well plates, following WHO guidelines of necessary nutrients. In each well, one L3 larva of Culex pipiens was added, together with different concentrations of the compounds to be tested (IC90 and two times IC90). In addition, negative controls, without treatment and with the maximum amount of DMSO added in the treatments, and positive controls, benznidazole as the reference treatment and triton, previously reported to be toxic to larvae, were added. All experiments were performed in duplicate and repeated on 3 different days, observing larval viability at different times (1, 3, 12, 24, and 48 h after the start of treatment).

[5] = tested on: Trypanosoma cruzi parasites; experiment: Induction of cell death mechanisms (ATP, SYTOX Green, JC-1, Hoechst/PI, CellROX); assay type: cell-based; conditions: parasites incubated 24 h with the IC90 of the compounds
Procedure: To observe these events, parasites were incubated for 24 h with the IC90 of the compounds. After that, the plate was centrifuged at 3000 rpm at 4 °C for 10 min to remove the supernatant. The pellet was then resuspended in buffer and the different kits were added following the manufacturer’s instructions. CellTiter-Glo® Luminescent Cell Viability Assay was used to determine the ATP levels of the parasitic cells. This kit contains luciferin upon contact with cell metabolism, oxidises to oxyluciferin and emitting luminescence. The procedure was as follows: after 24 h of incubation and centrifugation, the pellet was resuspended in 25 μL of buffer and mixed with 25 μL of CellTiter-Glo® in the dark, shaking for 2 min. Then, after 15 min of incubation at room temperature, the luminescence was read in the EnSpire Multimode Plate Reader® [20]. In PCD, there is an alteration in the permeability of the plasma membrane, but the cell structure is maintained. The SYTOX™ Green Stain (Thermo Fischer Scientific, Madrid, Spain) only penetrates cells with increased plasma permeability. Once inside the cell, it will bind to the DNA and emit green fluorescence. After incubation and centrifugation, the pellet was resuspended in 50 μL of buffer and the reagent was added at a concentration of 1 μM. […]

[6] = murine macrophages, mean ± standard deviation
[7] = 2IC90 (two times IC90) of compound, 1 h
[8] = 2IC90 (two times IC90) of compound, 3 h
[9] = 2IC90 (two times IC90) of compound, 12 h
[10] = 2IC90 (two times IC90) of compound, 24 h
[11] = 2IC90 (two times IC90) of compound, 48 h

Compound	IC50 ([1]; Trypanosoma cruzi, 72 h) [µM]	SI (selectivity index, CC50/IC50) [1]	IC50 [2] [µM]	SI (selectivity index, CC50/IC50) [2]	IC50 (cytotoxic concentration 50, CC50) [3, 6] [µM]	larval viability [4, 7]	larval viability [4, 8]	larval viability [4, 9]	larval viability [4, 10]	larval viability [4, 11]	larval viability ([4]; IC90 of compound, 1 h)	larval viability ([4]; IC90 of compound, 3 h)	larval viability ([4]; IC90 of compound, 12 h)	larval viability ([4]; IC90 of compound, 24 h)	larval viability ([4]; IC90 of compound, 48 h)	also measured
O=C(Cn1ccnc1[N+](=O)[O-])NCc1ccccc1 [Benznidazole, reference compound]	6.92 ± 0.77	57.8	2.67 ± 0.39	149.8	399.91 ± 1.40	Alive	Alive	Alive	Alive	Alive	Alive	Alive	Alive	Alive	Alive	
COc1ccc(N2C(=N)C=CC2=O)cc1 [H]		0.9			2.42 ± 1.58											toxicity of Z isomer relative to E isomer (times more toxic) ([3]; G–H isomer pair, murine macrophages): 100
COc1ccc(CN2C(=N)C=CC2=O)cc1 [F]		0.8														IC50 (cytotoxic concentration 50, CC50) ([3]; mouse): 2.82 ± 1.39 µM
Triton [reference compound]																larval viability ([4]; 0.01%, 1 h): Alive; larval viability ([4]; 0.01%, 3 h): Alive; larval viability ([4]; 0.01%, 12 h): Dead; larval viability ([4]; 0.01%, 24 h): Dead; larval viability ([4]; 0.01%, 48 h): Dead; larval viability ([4]; 0.5%, 1 h): Alive; larval viability ([4]; 0.5%, 3 h): Dead; larval viability ([4]; 0.5%, 12 h): Dead; larval viability ([4]; 0.5%, 24 h): Dead; larval viability ([4]; 0.5%, 48 h): Dead; larval viability ([4]; 1%, 1 h): Dead; larval viability ([4]; 1%, 3 h): Dead; larval viability ([4]; 1%, 12 h): Dead; larval viability ([4]; 1%, 24 h): Dead; larval viability ([4]; 1%, 48 h): Dead
N#C/C=C/C(=O)Nc1ccccc1 [A]	18.7 ± 1.9	5.1			94.78 ± 23.11											
N=C1C=CC(=O)N1Cc1ccccc1 [D]	12.4 ± 1.49	6.9														IC50 (cytotoxic concentration 50, CC50) ([3]; mouse): 85.32 ± 3.71 µM
COc1ccc(CNC(=O)/C=C/C#N)cc1 [E]	> 100	<3.2			319.61 ± 60.22											
COc1ccc(NC(=O)/C=C/C#N)cc1 [G]	20.7 ± 2.66		10.6 ± 3.05	25.2	266.62 ± 42.48	Alive	Alive	Alive	Alive	Alive	Alive	Alive	Alive	Alive	Alive	
N#C/C=C/C(=O)NCc1ccccc1 [C]	18.8 ± 2.03		24.1 ± 6.22	8.6	208.01 ± 13.44	Alive	Alive	Alive	Alive	Alive	Alive	Alive	Alive	Alive	Alive	
N=C1C=CC(=O)N1c1ccccc1 [B]	< 10		10.8 ± 2.11	10.9	118.07 ± 11.90	Alive	Alive	Alive	Alive	Alive	Alive	Alive	Alive	Alive	Alive	IC50 [1]: 6.91 ± 1.33 µM; type of cell death produced [5]: late phase of this type of cell death
